Measurements published in publication PMC8330742, “New benzothieno[2,3-c]pyridines as non-steroidal CYP17 inhibitors: design, synthesis, anticancer screening, apoptosis induction, and in silico ADME profile studies” (Journal of Enzyme Inhibition and Medicinal Chemistry, 2021).

Experiments:
SK-MEL-2 = assay: NCI-60 SRB screen; assay type: cell-based, human; details: Homo sapiens; SK-MEL-2; single dose 10^−5 M; read-out: Growth inhibition (%)
EKVX = assay: NCI-60 SRB screen; assay type: cell-based, human; details: Homo sapiens, single dose 10^−5 M, read-out: Growth inhibition (%)
CAKI-1 = assay: NCI-60 SRB screen; assay type: cell-based, human; details: Homo sapiens; CAKI-1; single dose 10^−5 M; read-out: Growth inhibition (%)
SK-MEL-28 = assay: NCI-60 SRB screen; assay type: cell-based; details: Homo sapiens; SK-MEL-28; single dose 10^−5 M; read-out: Growth inhibition (%)
786-0 = assay: NCI-60 SRB screen; assay type: cell-based; details: Homo sapiens; 786-0; single dose 10^−5 M; read-out: Growth inhibition (%)
HOP-92 = assay: NCI-60 SRB screen; assay type: cell-based, human; details: Homo sapiens; HOP-92; single dose 10^−5 M; read-out: Growth inhibition (%)
M14 = assay: NCI-60 SRB screen; assay type: cell-based, human; details: Homo sapiens; M14; single dose 10^−5 M; read-out: Growth inhibition (%)
HCT-15 = assay: NCI-60 SRB screen; assay type: cell-based, human; details: Homo sapiens; HCT-15; single dose 10^−5 M; read-out: Growth inhibition (%)
[1] = tested on: panel of 60 cancer cell lines; assay: NCI-60 SRB screen, mean or range over the panel; assay type: cell-based, human; details: Homo sapiens; mean over the cell lines; single dose 10^−5 M; read-out: Mean growth inhibition (%)
NCI/ADR-RES = assay: NCI-60 SRB screen; assay type: cell-based, human; details: Homo sapiens, single dose 10^−5 M, read-out: Growth inhibition (%)
SR = assay: NCI-60 SRB screen; assay type: cell-based; details: Homo sapiens, single dose 10^−5 M, read-out: Growth inhibition (%)
NCI-H226 = assay: NCI-60 SRB screen; assay type: cell-based, human; details: Homo sapiens; NCI-H226; single dose 10^−5 M; read-out: Growth inhibition (%)
SW-620 = assay: NCI-60 SRB screen; assay type: cell-based; details: Homo sapiens; SW-620; single dose 10^−5 M; read-out: Growth inhibition (%)
OVCAR-8 = assay: NCI-60 SRB screen; assay type: cell-based, human; details: Homo sapiens; OVCAR-8; single dose 10^−5 M; read-out: Growth inhibition (%)
NCI-H23 = assay: NCI-60 SRB screen; assay type: cell-based, human; details: Homo sapiens; NCI-H23; single dose 10^−5 M; read-out: Growth inhibition (%)
KM12 = assay: NCI-60 SRB screen; assay type: cell-based, human; details: Homo sapiens; KM12; single dose 10^−5 M; read-out: Growth inhibition (%)
HT-29 = assay: NCI-60 SRB screen; assay type: cell-based; details: Homo sapiens; HT-29; single dose 10^−5 M; read-out: Growth inhibition (%)
TK-10 = assay: NCI-60 SRB screen; assay type: cell-based, human; details: Homo sapiens; TK-10; single dose 10^−5 M; read-out: Growth inhibition (%)
ACHN = assay: NCI-60 SRB screen; assay type: cell-based; details: Homo sapiens, single dose 10^−5 M, read-out: Growth inhibition (%)
CCRF-CEM = assay: NCI-60 SRB screen; assay type: cell-based; details: Homo sapiens, single dose 10^−5 M, read-out: Growth inhibition (%)
HCT-116 = assay: NCI-60 SRB screen; assay type: cell-based, human; details: Homo sapiens; HCT-116; single dose 10^−5 M; read-out: Growth inhibition (%)
K-562 = assay: NCI-60 SRB screen; assay type: cell-based, human; details: Homo sapiens, K562; K-562; single dose 10^−5 M; read-out: Growth inhibition (%)
OVCAR-4 = assay: NCI-60 SRB screen; assay type: cell-based, human; details: Homo sapiens; OVCAR-4; single dose 10^−5 M; read-out: Growth inhibition (%)
SN12C = assay: NCI-60 SRB screen; assay type: cell-based, human; details: Homo sapiens, SN12C; SN 12 C; single dose 10^−5 M; read-out: Growth inhibition (%)
RXF 393 = assay: NCI-60 SRB screen; assay type: cell-based, human; details: Homo sapiens; RXF 393; single dose 10^−5 M; read-out: Growth inhibition (%)
OVCAR-3 = assay: NCI-60 SRB screen; assay type: cell-based, human; details: Homo sapiens; OVCAR-3; single dose 10^−5 M; read-out: Growth inhibition (%)
A549/ATCC = assay: NCI-60 SRB screen; assay type: cell-based, human; details: Homo sapiens, single dose 10^−5 M, read-out: Growth inhibition (%)
SF-295 = assay: NCI-60 SRB screen; assay type: cell-based, human; details: Homo sapiens; SF-295; single dose 10^−5 M; read-out: Growth inhibition (%)
UO-31 = assay: NCI-60 SRB screen; assay type: cell-based, human; details: Homo sapiens; UO-31; single dose 10^−5 M; read-out: Growth inhibition (%)
IGROV1 = assay: NCI-60 SRB screen; assay type: cell-based, human; details: Homo sapiens, IGROV-1; IGROV1; single dose 10^−5 M; read-out: Growth inhibition (%)
MALME-3M = assay: NCI-60 SRB screen; assay type: cell-based, human; details: Homo sapiens, single dose 10^−5 M, read-out: Growth inhibition (%)
SK-OV-3 = assay: NCI-60 SRB screen; assay type: cell-based, human; details: Homo sapiens; SK-OV-3; single dose 10^−5 M; read-out: Growth inhibition (%)
SK-MEL-5 = assay: NCI-60 SRB screen; assay type: cell-based, human; details: Homo sapiens; SK-MEL-5; single dose 10^−5 M; read-out: Growth inhibition (%)
SF-268 = assay: NCI-60 SRB screen; assay type: cell-based, human; details: Homo sapiens; SF-268; single dose 10^−5 M; read-out: Growth inhibition (%)
MDA-MB-435 = assay: NCI-60 SRB screen; assay type: cell-based; details: Homo sapiens, MDA-MB-435, read-out: Growth inhibition (%)
HOP-62 = assay: NCI-60 SRB screen; assay type: cell-based, human; details: Homo sapiens; HOP-62; single dose 10^−5 M; read-out: Growth inhibition (%)
COLO 205 = assay: NCI-60 SRB screen; assay type: cell-based, human; details: Homo sapiens; COLO 205; single dose 10^−5 M; read-out: Growth inhibition (%)
NCI-H522 = assay: NCI-60 SRB screen; assay type: cell-based, human; details: Homo sapiens; NCI-H522; single dose 10^−5 M; read-out: Growth inhibition (%)
UACC-62 = assay: NCI-60 SRB screen; assay type: cell-based, human; details: Homo sapiens; UACC-62; single dose 10^−5 M; read-out: Growth inhibition (%)
HL-60(TB) = assay: NCI-60 SRB screen; assay type: cell-based, human; details: Homo sapiens; HL-60 (TB); single dose 10^−5 M; read-out: Growth inhibition (%)
UACC-257 = assay: NCI-60 SRB screen; assay type: cell-based, human; details: Homo sapiens, UACC-257; UACC-275 (so in the source); single dose 10^−5 M; read-out: Growth inhibition (%)
NCI-H322M = assay: NCI-60 SRB screen; assay type: cell-based, human; details: Homo sapiens, single dose 10^−5 M, read-out: Growth inhibition (%)
MOLT-4 = assay: NCI-60 SRB screen; assay type: cell-based; details: Homo sapiens; MOLT-4; single dose 10^−5 M; read-out: Growth inhibition (%)
NCI-H460 = assay: NCI-60 SRB screen; assay type: cell-based, human; details: Homo sapiens; NCI-H460; single dose 10^−5 M; read-out: Growth inhibition (%)

Q: What does the source list for `O=C1NC(c2cccc([N+](=O)[O-])c2)c2sc3c(F)cccc3c2C1Cl` (centres unmarked) [Compound 4d, 4-Chloro-8-fluoro-1-(3-nitrophenyl)-1,2-dihydro[1]benzothieno[2,3-c] pyridine-3(4H)-one]?
A: inhibition at 10 µM (SK-MEL-2): -26.1%; inhibition at 10 µM (EKVX): 0.87%; inhibition at 10 µM (CAKI-1): 27.4%; inhibition at 10 µM (SK-MEL-28): -10.5%; inhibition at 10 µM (786-0): -11.2%; inhibition at 10 µM (HOP-92): 5.89%; inhibition at 10 µM (M14): -0.99%; inhibition at 10 µM (HCT-15): 1.31%; inhibition at 10 µM [1]: 0.15%; inhibition at 10 µM (NCI/ADR-RES): -8.05%; inhibition at 10 µM (SR): 11.4%; inhibition at 10 µM (NCI-H226): 5.26%; inhibition at 10 µM (SW-620): 3.43%; inhibition at 10 µM (OVCAR-8): -1.82%; inhibition at 10 µM (NCI-H23): -1.19%; inhibition at 10 µM (KM12): -5.21%; inhibition at 10 µM (HT-29): 2.3%; inhibition at 10 µM (TK-10): -40.7%; inhibition at 10 µM (ACHN): 6.28%; inhibition at 10 µM (CCRF-CEM): 1.99%; inhibition at 10 µM (HCT-116): 9.54%; inhibition at 10 µM (K-562): 23%; inhibition at 10 µM (OVCAR-4): 1.96%; inhibition at 10 µM (SN12C): 2.95%; inhibition at 10 µM (RXF 393): -18.1%; inhibition at 10 µM (OVCAR-3): -4.91%; inhibition at 10 µM (A549/ATCC): -2.89%; inhibition at 10 µM (SF-295): -3.1%; inhibition at 10 µM (UO-31): 34.7%; inhibition at 10 µM (IGROV1): 22.8%; inhibition at 10 µM (MALME-3M): 4.62%; inhibition at 10 µM (SK-OV-3): -10.2%; inhibition at 10 µM (SK-MEL-5): 4.05%; inhibition at 10 µM (SF-268): 6.94%; inhibition at 10 µM (MDA-MB-435): -7.63%; inhibition at 10 µM (HOP-62): 1.22%; inhibition at 10 µM (COLO 205): -17.2%; inhibition at 10 µM (NCI-H522): 8.55%; inhibition at 10 µM (UACC-62): 10.4%; inhibition at 10 µM (HL-60(TB)): -16.8%; inhibition at 10 µM (UACC-257): -15.8%; inhibition at 10 µM (NCI-H322M): -0.93%; inhibition at 10 µM (MOLT-4): 9.18%; inhibition at 10 µM (NCI-H460): 1.43%
